How the values were obtained:
[1] = biological target: T1, isolated recombinant JAK2 kinase domain (Homo sapiens, UniProt O60674); experiment: JAK enzyme assay, JAK2 kinase domain (Caliper LabChip); format: biochemical; conditions: 0.2 nM JAK2, ATP 25 μM, Morrison tight binding model
T1 construct: isolated recombinant JAK1 and JAK2 kinase domain
Method in brief: (§1)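 Recombinant kinase domains phosphorylated a 5-carboxyfluorescein-labelled JAK3-derived peptide for 30 min at 22 °C, and the reaction was stopped with EDTA (50 mM final). Product fraction was measured by Caliper LabChip mobility shift. Ki came from Morrison tight-binding fits corrected for ATP competition (Ki=Ki,app/(1+[ATP]/Km,app)).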

[2] = system: JAK1-dependent STAT6 phosphorylation downstream of IL-13 stimulation in BEAS-2B cells; experiment: JAK1 pathway assay in cell lines: IL-13 p-STAT6 BEAS-2B; format: cell-based; conditions: BEAS-2B human bronchial epithelial cells, 1 hr compound, IL-13 15 min, MSD readout
Method in brief: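 BEAS-2B cells plated a day ahead in complete growth medium; compounds added 1 hr at 37 °C (0.2% DMSO final), then IL-13 at lot-specific EC90 for 15 min at 37 °C. Phospho-STAT6 in lysates measured by MSD; EC50 is 50% inhibition relative to DMSO control.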

[3] = biological target: T2, isolated recombinant JAK1 kinase domain (Homo sapiens, UniProt P23458); experiment: JAK enzyme assay, JAK1 kinase domain (Caliper LabChip); format: biochemical; conditions: 1.5 nM JAK1, ATP 25 μM, Morrison tight binding model
T2 construct: isolated recombinant JAK1 and JAK2 kinase domain
Method in brief: as §1

T2 sequence (P23458 875-1153 limits assumed): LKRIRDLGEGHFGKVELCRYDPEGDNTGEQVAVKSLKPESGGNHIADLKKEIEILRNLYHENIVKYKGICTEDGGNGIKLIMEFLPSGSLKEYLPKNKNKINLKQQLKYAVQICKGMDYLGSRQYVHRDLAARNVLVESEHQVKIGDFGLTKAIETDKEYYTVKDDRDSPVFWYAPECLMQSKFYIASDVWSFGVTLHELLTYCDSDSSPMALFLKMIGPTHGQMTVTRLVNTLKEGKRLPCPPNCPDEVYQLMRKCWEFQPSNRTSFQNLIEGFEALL
T1 sequence (O60674 849-1124 limits assumed): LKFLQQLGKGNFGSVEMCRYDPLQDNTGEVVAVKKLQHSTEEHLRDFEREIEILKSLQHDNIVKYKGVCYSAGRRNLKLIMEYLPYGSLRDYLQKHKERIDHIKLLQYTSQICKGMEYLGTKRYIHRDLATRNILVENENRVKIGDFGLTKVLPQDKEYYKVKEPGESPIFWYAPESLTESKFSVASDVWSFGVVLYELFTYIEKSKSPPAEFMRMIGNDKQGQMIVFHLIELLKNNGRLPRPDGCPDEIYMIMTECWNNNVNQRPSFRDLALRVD

SMILES	Ki [1] [nM]	Ki [3] [nM]	EC50 [2] [nM]
CCc1cnn(C2(CC#N)CN(c3cccn4nc(Nc5cnn(CC(=O)N6CCC(NCC(C)(F)F)CC6)c5)nc34)C2)c1 [Example 30, 2-[1-[2-[[1-[2-[4-(2,2-difluoropropylamino)-1-piperidyl]-2-oxo-ethyl]pyrazol-4-yl]amino]-[1,2,4]triazolo[1,5-a]pyridin-8-yl]-3-(4-ethylpyrazol-1-yl)azetidin-3-yl]acetonitrile]	2.7	0.7	104
N#CCC1(n2cc(C(F)(F)F)cn2)CN(c2cccn3nc(Nc4cnn(CC(=O)N5CCC(N6CCOCC6)CC5)c4)nc23)C1 [Example 96, 2-[1-[2-[[1-[2-(4-morpholino-1-piperidyl)-2-oxo-ethyl]pyrazol-4-yl]amino]-[1,2,4]triazolo[1,5-a]pyridin-8-yl]-3-[4-(trifluoromethyl)pyrazol-1-yl]azetidin-3-yl]acetonitrile]	0.8	0.3	28
CN1CCN(C(=O)c2cccc(Nc3nc4c(N5CC(CC#N)(n6cc(C(F)(F)F)cn6)C5)cccn4n3)c2)CC1 [Example 110, formic acid;2-[1-[2-[3-(4-methylpiperazine-1-carbonyl)anilino]-[1,2,4]triazolo[1,5-a]pyridin-8-yl]-3-[4-(trifluoromethyl)pyrazol-1-yl]azetidin-3-yl]acetonitrile]	0.9	0.8	100
COc1ccc(CCC2(CC#N)CN(c3cccn4nc(Nc5cnn(CC(=O)N6CCN(C)CC6)c5)nc34)C2)cc1 [Example 117, 2-[3-[2-(4-methoxyphenyl)ethyl]-1-[2-[[1-[2-(4-methylpiperazin-1-yl)-2-oxo-ethyl]pyrazol-4-yl]amino]-[1,2,4]triazolo[1,5-a]pyridin-8-yl]azetidin-3-yl]acetonitrile]	2.4	0.4	20
N#CCC1(n2cc(C(F)(F)F)cn2)CN(c2cccn3nc(Nc4cnn(CC(=O)N5CCN(C6CCOCC6)CC5)c4)nc23)C1 [Example 98, 2-[1-[2-[[1-[2-oxo-2-(4-tetrahydropyran-4-ylpiperazin-1-yl)ethyl]pyrazol-4-yl]amino]-[1,2,4]triazolo[1,5-a]pyridin-8-yl]-3-[4-(trifluoromethyl)pyrazol-1-yl]azetidin-3-yl]acetonitrile]	0.8	0.5	32
CN1CCN(C(=O)Cn2cc(Nc3nc4c(N5CC(CC#N)(n6cc(C7CCCC7)cn6)C5)cccn4n3)cn2)CC1 [Example 49, 2-[3-(4-cyclopentylpyrazol-1-yl)-1-[2-[[1-[2-(4-methylpiperazin-1-yl)-2-oxo-ethyl]pyrazol-4-yl]amino]-[1,2,4]triazolo[1,5-a]pyridin-8-yl]azetidin-3-yl]acetonitrile]	2.4	0.6	30
CCc1cnn(C2(CC#N)CN(c3cccn4nc(Nc5ccc6c(c5)CCN(C5COC5)C6)nc34)C2)c1 [Example 51, 2-[3-(4-ethylpyrazol-1-yl)-1-[2-[[2-(oxetan-3-yl)-3,4-dihydro-1H-isoquinolin-6-yl]amino]-[1,2,4]triazolo[1,5-a]pyridin-8-yl]azetidin-3-yl]acetonitrile]	1.6	0.3	44
COc1cnn(C2(CC#N)CN(c3cccn4nc(Nc5cnn(C)c5)nc34)C2)c1 [Example 137, 2-[3-(4-methoxypyrazol-1-yl)-1-[2-[(l-methylpyrazol-4-yl)amino]-[1,2,4]triazolo[1,5-a]pyridin-8-yl]azetidin-3-yl]acetonitrile]	2.8	0.5	39
CCc1cnn(C2(CC#N)CN(c3cccn4nc(Nc5ccc(C(=O)NCCCN6CCOCC6)cc5)nc34)C2)c1 [Example 67, 4-[[8-[3-(cyanomethyl)-3-(4-ethylpyrazol-1-yl)azetidin-1-yl]-[1,2,4]triazolo[1,5-a]pyridin-2-yl]amino]-N-(3-morpholinopropyl)benzamide]	1.1	0.5	167
CCc1cnn(C2(CC#N)CN(c3cccn4nc(Nc5cnn(CC(=O)N6CCC(NCC7(C#N)CC7)CC6)c5)nc34)C2)c1 [Example 4, 1-[[(1-[2-[4-([8-[3-(cyanomethyl)-3-(4-ethyl-1H-pyrazol-1-yl)azetidin-1-yl]-[1,2,4]triazolo[1,5-a]pyridin-2-yl]amino)-1H-pyrazol-1-yl]acetyl]piperidin-4-yl)amino]methyl]cyclopropane-1-carbonitrile]	4.6	0.6	39
N#CCC1(n2cc(C(F)(F)F)cn2)CN(c2cccn3nc(Nc4ccc(CC(=O)N5CCN(C6COC6)CC5)cc4)nc23)C1 [Example 115, 2-[1-[2-[4-[2-[4-(oxetan-3-yl)piperazin-1-yl]-2-oxo-ethyl]anilino]-[1,2,4]triazolo[1,5-a]pyridin-8-yl]-3-[4-(trifluoromethyl)pyrazol-1-yl]azetidin-3-yl]acetonitrile]	22.9	2.4	139
COCCN1CCN(C(=O)Cn2cc(Nc3nc4c(N5CC(CC#N)(c6cccc(Cl)c6)C5)cccn4n3)cn2)CC1 [Example 81, 2-[3-(3-chlorophenyl)-1-[2-[[1-[2-[4-(2-methoxyethyl)piperazin-1-yl]-2-oxo-ethyl]pyrazol-4-yl]amino]-[1,2,4]triazolo[1,5-a]pyridin-8-yl]azetidin-3-yl]acetonitrile]	1	0.4	27
N#CCC1(c2cccc(Cl)c2)CN(c2cccn3nc(Nc4cnn(CC(=O)N5CCC(NCC6(C#N)CC6)CC5)c4)nc23)C1 [Example 99, 1-[[[1-[2-[4-[[8-[3-(3-chlorophenyl)-3-(cyanomethyl)azetidin-1-yl]-[1,2,4]triazolo[1,5-a]pyridin-2-yl]amino]pyrazol-1-yl]acetyl]-4-piperidyl]amino]methyl]cycl opropanecarbonitrile]	4	2	71

Now those with a lower Ki [1], led by results:

Ki [1] [nM]	Ki [3] [nM]	SMILES	EC50 [2] [nM]
0.4	0.7	CN1CCN(C(=O)c2cc(Nc3nc4c(N5CC(CC#N)(n6cc(C(F)(F)F)cn6)C5)cccn4n3)ccn2)CC1 [Example 111, 2-[1-[2-[[2-(4-methylpiperazine-1-carbonyl)-4-pyridyl]amino]-[1,2,4]triazolo[1,5-a]pyridin-8-yl]-3-[4-(trifluoromethyl)pyrazol-1-yl]azetidin-3-yl]acetonitrile]	39
0.3	0.4	CCc1cnn(C2(CC#N)CN(c3cccn4nc(Nc5cnn(CC(=O)N6CCC(N(C)C7COC7)CC6)c5)nc34)C2)c1 [Example 34, 2-[3-(4-ethylpyrazol-1-yl)-1-[2-[[1-[2-[4-[methyl(oxetan-3-yl)amino]-1-piperidyl]-2-oxo-ethyl]pyrazol-4-yl]amino]-[1,2,4]triazolo[1,5-a]pyridin-8-yl]azetidin-3-yl]acetonitrile]	15
0.2	0.1	N#CCC1(n2cc(C3CC3)cn2)CN(c2cccn3nc(Nc4cn[nH]c4)nc23)C1 [Example 140, 2-[3-(4-cyclopropylpyrazol-1-yl)-1-[2-(1H-pyrazol-4-ylamino)-[1,2,4]triazolo[1,5-a]pyridin-8-yl]azetidin-3-yl]acetonitrile]	11
0.4	0.1	CCc1cnn(C2(CC#N)CN(c3cccn4nc(Nc5cnn(CC(F)F)c5)nc34)C2)c1 [Example 148, 2-[1-[2-[[1-(2,2-difluoroethyl)pyrazol-4-yl]amino]-[1,2,4]triazolo[1,5-a]pyridin-8-yl]-3-(4-ethylpyrazol-1-yl)azetidin-3-yl]acetonitrile]	8
0.3	0.3	N#CCC1(n2cc(C(F)(F)F)cn2)CN(c2cccn3nc(Nc4cnn(CCO)c4)nc23)C1 [Example 134, 2-[1-[2-[[1-(2-hydroxyethyl)pyrazol-4-yl]amino]-[1,2,4]triazolo[1,5-a]pyridin-8-yl]-3-[4-(trifluoromethyl)pyrazol-1-yl]azetidin-3-yl]acetonitrile]	13
0.7	0.3	CSc1cc(C2(CC#N)CN(c3cccn4nc(Nc5cnn(CC(=O)N6CCN(C)CC6)c5)nc34)C2)ccc1F [Example 79, 2-[3-(4-fluoro-3-methylsulfanyl-phenyl)-1-[2-[[1-[2-(4-methylpiperazin-1-yl)-2-oxo-ethyl]pyrazol-4-yl]amino]-[1,2,4]triazolo[1,5-a]pyridin-8-yl]azetidin-3-yl]acetonitrile]	16
0.6	0.3	N#CCC1(n2cc(CCF)cn2)CN(c2cccn3nc(Nc4cn[nH]c4)nc23)C1 [Example 149, 2-[3-[4-(2-fluoroethyl)pyrazol-1-yl]-1-[2-(1H-pyrazol-4-ylamino)-[1,2,4]triazolo[1,5-a]pyridin-8-yl]azetidin-3-yl]acetonitrile]	21
0.2	0.2	CCc1cnn(C2(CC#N)CN(c3cccn4nc(Nc5cnn(CC(=O)N6CCN(CCOC)CC6)c5)nc34)C2)c1 [Example 46, 2-[3-(4-ethylpyrazol-1-yl)-1-[2-[[1-[2-[4-(2-methoxyethyl)piperazin-1-yl]-2-oxo-ethyl]pyrazol-4-yl]amino]-[1,2,4]triazolo[1,5-a]pyridin-8-yl]azetidin-3-yl]acetonitrile]	7
0.2	0.4	CCc1cnn(C2(CC#N)CN(c3cccn4nc(Nc5cnn(CC(=O)N6CCC(CN7CCN(C)CC7)CC6)c5)nc34)C2)c1 [Example 47]	11

— US20230242530A1, “8-(AZETIDIN-1-YL)-[1,2,4]TRIAZOLO[1,5-A]PYRIDINYL COMPOUNDS, COMPOSITIONS AND METHODS OF USE THEREOF” (Genentech, Inc., priority 2016, published 2023)
